# Experimental data taken from US20110313032A1, “COMPETITIVE INHIBITORS OF TYPE II DEHYDROQUINASE ENZYME” (priority 2008, published 2011).
# Where a name gives a salt, the structure may show the parent alone. Read-outs that look alike come from different tables or passages of the source.
# Tests used:
# [1] = biological target: type II dehydroquinase from Mycobacterium tuberculosis (Mycobacterium tuberculosis, UniProt P9WPX7); assay: biochemical
# Method: (§1) Effect of compounds of formula I of the invention on the catalytic activity of the type II dehydroquinase from various sources. The inhibitory potency of compounds I of the invention against type II dehydroquinases from Mycobacterium tuberculoris, Streptomyces coelicolor and Helicobacter pylori were assayed as it is described in the following articles: 1) Sanchez-Sixto, C.; Prazeres, V. F. V.; Castedo, L.; Lamb, H.; Hawkins, A. R.; Gonzalez-Bello, C. J. Med. Chem. 2005, 48, 4871; 2) Prazeres, V. F. V.; Sanchez-Sixto, C.; Castedo, L.; Lamb, H.; Hawkins, A. R.; Riboldi-Tunnicliffe; Coggins, J. R.; Lapthorn, A. J.; González-Bello, C. Chem Med Chem 2007, 2, 194; and 3) Sanchez-Sixto, C.; Prazeres, V. F. V.; Castedo, L.; S. W. Suh, Lamb, H.; Hawkins, A. R.; Canada, F. J.; Jiménez-Barbero, J.; González-Bello, C. Chem Med Chem 2008, 3, 756.
# [2] = biological target: T1, type II dehydroquinase from Helicobacter pylori (Helicobacter pylori, UniProt Q48255); assay: Inhibition of type II dehydroquinase from Helicobacter pylori (Ki); type: biochemical
# T1 sequence (Q48255 1-167): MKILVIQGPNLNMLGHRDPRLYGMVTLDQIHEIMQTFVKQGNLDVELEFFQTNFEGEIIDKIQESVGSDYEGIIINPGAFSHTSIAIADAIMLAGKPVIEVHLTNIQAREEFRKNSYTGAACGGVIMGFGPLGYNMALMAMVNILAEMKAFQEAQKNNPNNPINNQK
# Method: as §1
# [3] = biological target: type II dehydroquinase from Streptomyces coelicolor (Streptomyces coelicolor, UniProt P15474); assay: Inhibition of type II dehydroquinase from Streptomyces coelicolor (Ki); type: biochemical
# Chain of type II dehydroquinase from Streptomyces coelicolor (P15474 whole entry): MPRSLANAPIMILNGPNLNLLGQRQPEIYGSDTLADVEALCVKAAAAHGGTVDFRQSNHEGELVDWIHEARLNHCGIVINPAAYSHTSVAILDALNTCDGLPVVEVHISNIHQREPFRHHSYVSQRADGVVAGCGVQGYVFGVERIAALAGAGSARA
# Method: as §1
# [4] = Inhibition constants Ki, M. tuberculosis, pH = 7.0, 25° C., 50 mM Tris•HOAc
# [5] = Inhibition constants Ki, H. pylori, pH = 7.0, 25° C., 50 mM Tris•HCl
# [6] = pH = 7.0, 25° C., 50 mM Tris•HCl, read-out: Inhibition constants Ki, S. coelicolor
# [7] = inhibition constants against Mycobacterium tuberculosis
# [8] = pH = 7.0, 25° C., 50 mM Tris•HCl, read-out: Inhibition constants Ki, H. pylori
# [9] = Inhibition constants Ki, S. coelicolor, pH = 7.0, 25° C., 50 mM Tris•HCl
# [10] = pH = 7.0, 25° C., 50 mM Tris•HOAc, read-out: Inhibition constants Ki, M. tuberculosis
# Chain of type II dehydroquinase from Mycobacterium tuberculosis (P9WPX7 whole entry): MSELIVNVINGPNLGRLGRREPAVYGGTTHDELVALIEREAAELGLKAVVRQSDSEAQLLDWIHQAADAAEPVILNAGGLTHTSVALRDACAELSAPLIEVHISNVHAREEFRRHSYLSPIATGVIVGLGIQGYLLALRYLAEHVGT
Compound,"Ki [3, 6]","Ki [2, 8]","Ki [3, 9]",other results
"C=CC[C@@H]1C(=O)[C@@H](O)[C@H](O)C[C@]1(O)C(=O)O (hydrate or solvate) [(2S)-Ia-1, (2S)-2-allyl-3-dehydroquinic acid]",–,–,–,melting point: 127 to 130 °C
CC(C)c1cc2c(s1)[C@@H](O)[C@H](O)C[C@]2(O)C(=O)O,–,–,–,melting point: 125 to 127 °C
COC(=O)[C@@]1(O)C[C@@H](O)[C@H](O)c2sc(C)cc21,–,–,–,melting point: 87 to 92 °C
"Cc1cc2c(s1)[C@@H](O)[C@H](O)C[C@]2(O)C(=O)O [Ic-2, (4R, 6R, 7S)-4,6,7-trihydroxy-2-methyl-4,5,6,7-tetrahydrobenzo[b]thiophen-4-carboxylic acid]",3150 nM,–,–,"Ki [1, 4]: 400 nM; Ki [2, 5]: 1600 nM"
"O=C1C(O)C(O)CC(O)(C(=O)O)C1Cc1c(F)c(F)c(F)c(F)c1F (single isomer, unassigned) (hydrate or solvate) [(2S)-Ia-6]",–,–,–,melting point: 123 to 125 °C
CCOC(=O)[C@@]1(O)C[C@@H](O)[C@H](O)c2sc(CCc3ccccc3)cc21,–,–,–,melting point: 118 to 120 °C
"COc1ccc(CC2C(=O)C(O)C(O)CC2(O)C(=O)O)cc1 (single isomer, unassigned) [(2R)-Ia-5]",–,170 nM,34 nM,"times more effective than 2,3-dehydroquinic acid, M. tuberculosis ([1]; Ki ratio): 8000 times; times more affinity with respect of the natural substrate, M. tuberculosis ([1]; Km of substrate / Ki): 1600 times; Ki [1, 7]: 25 nM"
"Cc1ccc2sc(COC3=C(Cc4cc5cc(C)ccc5s4)[C@@](O)(C(=O)O)C[C@@H](O)[C@@H]3O)cc2c1 [Ib-4, Sodium (1R, 4S, 5R)-1,4,5-trihydroxy-3-(5-methylbenzo[b]thiophen-2-yl)methoxy-2-(5-methylbenzo[b]thiophen-2-yl)methylcyclohex-2-en-1-carboxylate]",–,70 nM,13 nM,"Ki [1, 10]: 190 nM"
"O=C([O-])[C@@]1(O)C[C@@H](O)[C@H](O)C(OCc2ccc3sccc3c2)=C1Cc1cccs1.[Na+] (hydrate or solvate) [Ib-13, Sodium (1R,4S,5R)-1,4,5-trihydroxy-3-(benzo[b]thiophen-5-yl)methoxy-2-(thien-2-yl)methylcyclohex-2-en-1-carboxylate]",–,–,–,melting point: 184 °C (dec.)
O=C(O)[C@@]1(O)C[C@@H](O)[C@H](O)C(OCc2cccs2)=C1Cc1cccs1 (as salt: sodium) (hydrate or solvate) [Ib-8],–,–,–,melting point: 178 to 181 °C
"C=CC[C@H]1C(=O)[C@@H](O)[C@H](O)C[C@]1(O)C(=O)O (hydrate or solvate) [(2R)-Ia-1, (2R)-2-allyl-3-dehydroquinic acid]",–,–,–,melting point: 144 to 148 °C
"C=CC[C@@H]1C(=O)[C@@H](O)[C@H](O)C[C@]1(O)C(=O)O [(2S)-Ia-1, (2S)-2-allyl-3-dehydroquinic acid]",–,21500 nM,6700 nM,"Ki [1, 10]: 1850 nM"
"O=C([O-])[C@@]1(O)C[C@@H](O)[C@H](O)C(OCc2ccc3sccc3c2)=C1Cc1cccs1.[Na+] [Ib-13, Sodium (1R,4S,5R)-1,4,5-trihydroxy-3-(benzo[b]thiophen-5-yl)methoxy-2-(thien-2-yl)methylcyclohex-2-en-1-carboxylate]",–,–,280 nM,"times more effective than the 2,3-dehydroquinic acid, H. pylori ([2]; Ki ratio): 16.190 times; times more affinity with respect of the natural substrate, H. pylori ([2]; Km of substrate / Ki): about 21.000 times; Ki ([2]; read-out: affinities in the case of H. pylori): 21 nM"
"CCCc1cc2c(s1)[C@@H](O)[C@H](O)C[C@]2(O)C(=O)O [Ic-13, (4R,6R,7S)-4,6,7-trihydroxy-2-propyl-4,5,6,7-tetrahyclrobenzo[b]thiophene-4-carboxylic acid]",22 nM,–,–,"Ki [2, 5]: 120 nM"
"Cc1ccc2sc(COC3=C[C@@](O)(C(=O)O)C[C@@H](O)[C@@H]3O)cc2c1 [Ib-3, Sodium (1R, 4S, 5R)-1,4,5-trihydroxy-3-(5-methylbenzo[b]thiophen-2-yl)methoxycyclohex-2-en-1-carboxylate]",–,97 nM,2.4 nM,"Ki [1, 4]: 40 nM"
"O=C(O)[C@]1(O)C=C(OCc2ccc3ccccc3c2)[C@@H](O)[C@H](O)C1 [Ib-.10, Sodium (1R,4S,5R)-1,4-trihydroxy-3-(2-naphyl)methoxycyclohex-2-en-1-carboxylate]",< 0.26 nM,–,–,–
"Cc1ccc(CC2C(=O)C(O)C(O)CC2(O)C(=O)O)cc1 (single isomer, unassigned) [(2R)-Ia-4]",–,250 nM,22 nM,"Ki [1, 4]: 89 nM"

Compound,"Ki [3, 6]","Ki [2, 8]","Ki [3, 9]",other results
"C=CCC1=C(OCc2cc3ccccc3s2)[C@@H](O)[C@H](O)C[C@]1(O)C(=O)O [Ib-5, Sodium (1R, 4S, 5R)-2-allyl-3-(benzo[b]thiophen-2-yl)methoxy-1,4,5-tri-hydroxycyclohex-2-en-1-carboxylate]",–,1100 nM,15 nM,"Ki [1, 10]: 1240 nM"
"C=C(c1ccccc1)c1cc2c(s1)[C@@H](O)[C@H](O)C[C@]2(O)C(=O)O [Ic-10, (4R,6R,7S)-4,6,7-trihydroxy-2-(1-phenylvinyl)-4,5,6,7-tetrahydro-benzo[b]thiophen-4-carboxylic acid]",4650 nM,–,–,"Ki [2, 5]: 20500 nM"
C=C(C)c1cc2c(s1)[C@@H](O)[C@H](O)C[C@]2(O)C(=O)O [Ic-5],1880 nM,–,–,"Ki [1, 4]: 860 nM; Ki [2, 5]: 38000 nM"
O=C(O)[C@@]1(O)C[C@@H](O)[C@H](O)C(OCc2cccs2)=C1Cc1cccs1 [Ib-8],140 nM,15000 nM,–,–
"C=Cc1cc2c(s1)[C@@H](O)[C@H](O)C[C@]2(O)C(=O)O [Ic-3, (4R, 6R, 7S)-4,6,7-trihydroxy-2-vinyl-4,5,6,7-tetrahydrobenzo[b]thiophen-4-carboxylic acid]",810 nM,–,–,"Ki [1, 4]: 52 nM; Ki [2, 5]: 1250 nM"
"O=C(O)[C@@]1(O)C[C@@H](O)[C@H](O)c2sc(CCc3ccccc3)cc21 [Ic-12, (4R,6R,7S)-4,6,7-trihydroxy-2-phenethyl-4,5,6,7-tetrahydrobenzo[b]thiophene-4-carboxylic acid]",46 nM,–,–,"Ki [2, 5]: 1700 nM"
"O=C(O)[C@]1(O)C=C(OCc2ccc3sccc3c2)[C@@H](O)[C@H](O)C1 [Ib-7, Sodium (1R,4S,5R)-1,4,5-trihydroxy-3[(benzo[b]thiophen-5-yl)methoxy]cyclohex-2-en-1-carboxylate]",–,166 nM,0.3 nM,"Ki [1, 10]: 31 nM"
"O=C(O)[C@@]1(O)C[C@@H](O)[C@H](O)C(OCc2ccc3ccccc3c2)=C1Cc1ccc2ccccc2c1 [Ib-11, Sodium (1R,4S,5R)-1,4,5-trihydroxy-3-(naphth-2-yl)methoxy-2-(naphth-2-yl)methylcyclohex-2-en-1-carboxylate]",32 nM,–,–,–
"O=C1C(O)C(O)CC(O)(C(=O)O)C1Cc1c(F)c(F)c(F)c(F)c1F (single isomer, unassigned) [(2S)-Ia-6]",–,–,6.5 nM,"Ki [1, 4]: 74 nM"
"O=C(O)[C@@]1(O)C[C@@H](O)[C@H](O)C(OCc2cccs2)=C1Cc1cc2ccccc2s1 [Ib-12, Sodium (1R,4S,5R)-1,4,5-trihydroxy-3-(thien-2-yl)methoxy-2-(benzo[b]thiophen-2-yl)methylcyclohex-2-en-1-carboxylate]",–,46 nM,279 nM,–
"O=C1C(O)C(O)CC(O)(C(=O)O)C1Cc1ccc2sccc2c1 (single isomer, unassigned) [(2R)-Ia-7]",–,160 nM,4 nM,"Ki [1, 4]: 29 nM"
"C=CC[C@H]1C(=O)[C@@H](O)[C@H](O)C[C@]1(O)C(=O)O [(2R)-Ia-1, (2R)-2-allyl-3-dehydroquinic acid]",–,9400 nM,10200 nM,"Ki [1, 10]: 760 nM"
O=C(O)C1(O)CC(O)C(O)C(OCc2cc3ccccc3s2)=C1Cc1cc2ccccc2s1 (centres unmarked) [Ib-2],–,140 nM,2.8 nM,"Ki [1, 4]: 4.25 nM"
"O=C1C(O)C(O)CC(O)(C(=O)O)C1Cc1c(F)c(F)c(F)c(F)c1F (single isomer, unassigned) [(2R)-Ia-6]",–,2600 nM,242 nM,"Ki [1, 4]: 47 nM"
"C/C=C/c1cc2c(s1)[C@@H](O)[C@H](O)C[C@]2(O)C(=O)O [Ic-4, (4R, 6R, 7S)-4,6,7-trihydroxy-2-[(E)-prop-1-enyl]-4,5,6,7-tetrahydrobenzo[b]thiophen-4-carboxylic acid]",93 nM,–,–,"Ki [1, 4]: 97 nM; Ki [2, 5]: 350 nM"
"O=C(O)[C@]1(O)C=C(OCc2cc3ccccc3s2)[C@@H](O)[C@H](O)C1 [Ib-1, Sodium (1R, 4S, 5R)-3-(benzo[b]thiophen-2-yl)methoxy-1,4,5-trihydroxycyclohex-2-en-1-carboxylate]",0.48 nM,160 nM,–,"Ki [1, 7]: 3.2 nM; Ki ([3]; read-out: affinities in the case of S. coelicolor): 0.48 nM"
"CCCC1C(=O)C(O)C(O)CC1(O)C(=O)O [(2R)-Ia-2, (2R)-2-propyl-3-dehydroquinic acid]",–,20000 nM,76000 nM,"Ki [1, 10]: 1700 nM"
